Experimental data reported in patent publication US6518316B1, “Cytokine production and tyrosine kinase inhibitors” (Xenova Limited, priority 1998, dated 2003).
Where two headings read alike, the source gives them in different places.

Columns and labels:
recombinant abl kinase = recombinant abl kinase (Homo sapiens, UniProt P00519); experiment: Inhibition of tyrosine kinase activity (abl kinase, LANCE time resolved fluorescence); type: biochemical; settings: for IC50: abl kinase, peptide 6-20 p34cdc substrate
recombinant abl kinase, sequence (P00519 whole entry): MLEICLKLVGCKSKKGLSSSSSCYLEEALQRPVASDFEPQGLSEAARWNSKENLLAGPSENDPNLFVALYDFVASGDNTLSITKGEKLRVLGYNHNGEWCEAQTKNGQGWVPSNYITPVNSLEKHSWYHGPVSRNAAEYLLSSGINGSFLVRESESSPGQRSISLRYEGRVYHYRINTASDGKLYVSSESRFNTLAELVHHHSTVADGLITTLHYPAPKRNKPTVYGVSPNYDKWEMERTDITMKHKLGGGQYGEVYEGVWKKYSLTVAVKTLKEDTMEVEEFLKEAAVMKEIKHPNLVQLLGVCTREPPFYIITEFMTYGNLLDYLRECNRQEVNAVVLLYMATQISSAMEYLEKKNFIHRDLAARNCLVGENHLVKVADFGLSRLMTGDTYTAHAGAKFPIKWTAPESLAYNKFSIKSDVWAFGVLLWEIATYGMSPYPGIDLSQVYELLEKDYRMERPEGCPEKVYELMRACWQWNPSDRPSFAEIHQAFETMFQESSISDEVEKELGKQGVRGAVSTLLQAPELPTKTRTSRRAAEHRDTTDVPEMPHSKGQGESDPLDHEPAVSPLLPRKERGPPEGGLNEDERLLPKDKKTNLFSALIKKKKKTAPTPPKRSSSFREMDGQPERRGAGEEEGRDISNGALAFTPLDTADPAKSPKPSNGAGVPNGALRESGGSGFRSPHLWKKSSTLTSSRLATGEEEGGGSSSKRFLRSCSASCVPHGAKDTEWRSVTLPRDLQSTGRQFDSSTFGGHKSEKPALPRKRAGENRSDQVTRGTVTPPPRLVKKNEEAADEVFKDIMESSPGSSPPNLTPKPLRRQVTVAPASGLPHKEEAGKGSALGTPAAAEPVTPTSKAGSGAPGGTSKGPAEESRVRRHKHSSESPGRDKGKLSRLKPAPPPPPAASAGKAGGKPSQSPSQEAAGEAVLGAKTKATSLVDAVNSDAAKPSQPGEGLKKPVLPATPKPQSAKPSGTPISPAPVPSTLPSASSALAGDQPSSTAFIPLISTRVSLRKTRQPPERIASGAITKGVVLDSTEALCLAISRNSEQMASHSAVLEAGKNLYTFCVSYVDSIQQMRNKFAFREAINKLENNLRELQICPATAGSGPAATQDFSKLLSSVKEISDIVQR
From the text: Phosphorylation of the peptide substrate was detected using a non-separation time resolved fluorescence assay (LANCE™) using anti-phosphotyrosine conjugated europium and streptavidin conjugated allophycocyanin (APC).

[1] = tested on: IL-2 production by Jurkat E6-1 cells; experiment: Cytokine (IL-2) release from PMA pre-treated, anti-CD28 stimulated Jurkat E6-1 cells (DELFIA); type: cell-based; settings: for IC50: anti-CD28, 18 hours, read-out: IC50 for the inhibition of anti-CD28 induced IL-2 production by Jurkat E6-1 cells
Procedure: Jurkat E6-1 cell line was obtained from American Tissue Culture Collection (ATCC, Rockville, USA). The cells were pre-treated with 3 ng/ml phorbol myristate acetate (PMA) for three hours, washed and exposed to dose ranges of the compound to be tested followed by the addition of 5 μg/ml anti-CD28.
After 18 hours incubation at 37° C. and 5% CO2, cell culture supernatants were harvested for determination of IL-2 secretion by Dissociation Enhanced Lanthanide Fluorescence Immuno Assay (DELFIA). The effect of compound on cell cytotoxicity was determined using a redox potential sensitive dye, resazurin. Effects on protein synthesis were determined by investigation of [^3H] leucine uptake.

TNF-α = TNF-α release from PHA and LPS stimulated whole blood (DELFIA); type: cell-based; settings: Homo sapiens
Procedure: (§1) Whole blood samples obtained from up to seven normal healthy volunteers were diluted in an equal volume of RPMI 1640 with 5% FBS and exposed to dose ranges of compound (Ia) followed by the addition of 10 μg/ml phytohaemagglutinin (PHA) and 100 ng/ml LPS. After incubation for 48 hours at 37° C. and 5% CO2 serum samples were harvested for determination of effect on IL-2 and TNF-α secretion using DELFIAs specific for each cytokine respectively.

[2] = tested on: IL2 production by T cells; experiment: Cytokine (IL-2) release from purified T cells stimulated with anti-CD3 and anti-CD28 (DELFIA); type: cell-based; settings: Homo sapiens, T-cell
From the text: The effect of compound (Ia) on IL-2 release was investigated using a previously described method (Van Cool S. W. et al., (1993) J. Immunol. 150: 3254-3263). T cells were purified by depletion of B cells and monocytes from Buffy coats obtained from normal healthy donors following separation of human peripheral blood mononuclear cells (PBMC) on Lymphoprep. Purified T cells were suspended in RPMI 1640 supplemented with 5% fetal bovine serum (FBS) and aliquoted into 96 well plates coated with anti-CD3. Cells were exposed to dose ranges of the compound to be tested followed by the addition of 5 μg/ml anti-CD28 and incubated for 18 hours at 37° C. and 5% CO2. IL-2 secretion in cell culture supernatants was determined using IL-2 DELFIA.

IL-2 = IL-2 release from PHA and LPS stimulated whole blood (DELFIA); type: cell-based; settings: Homo sapiens
Procedure: as §1

[3] = tested on: TNF-α secretion by monocytes; experiment: Cytokine (TNF-α) release from LPS stimulated monocytes (DELFIA); type: cell-based; settings: Homo sapiens, Monocyte
Procedure: The effect of compound (Ia) on TNF-α release was investigated using a previously described method (Bakouche, O. et al., (1992), J. Immunol: 14, 84-91). Human monocytes were purified by elutriation from Buffy coats obtained from normal healthy donors after the separation of peripheral blood mononuclear cells (PBMC) on Lymphoprep. The monocytes were suspended in RPMI 1640 with 5% FBS and exposed to dose ranges of the compound to be tested followed by the addition of 1 ng/ml LPS. After incubation for 18 hours at 37° C. and 5% CO2 cell culture supernatants were harvested and stored at −70° C. Effects on TNF-α release were determined using a DELFIA.

T cells = experiment: Toxicity to T cells; type: cell-based, human; settings: 0.06 to 7 μM
[4] = Homo sapiens, Jurkat E6.1, PMA pre-treated

## CO[C@H]1[C@H](OC)c2c(O)cccc2C2=C3CCC(=O)c4c(O)ccc(c43)[C@@H]21 (relative stereo) [Compound 11a]
Recombinant abl kinase
  IC50: 2.36 µM
[1]; [4]
  IC50: > 6.18 µM

## CO[C@@H]1[C@@H]2C(=C3CCC(=O)c4c(O)ccc2c43)c2cccc(O)c2[C@@H]1O (relative stereo) [Compound (Ia)]
TNF-α; Donor 1, read-out: IC50 Inhibition of TNF-α
  IC50: 14 µM
TNF-α; Donor 2, read-out: IC50 Inhibition of TNF-α
  IC50: 14 µM
TNF-α; Donor 3, read-out: IC50 Inhibition of TNF-α
  IC50: 0.7 µM
TNF-α; Donor 4, read-out: IC50 Inhibition of TNF-α
  IC50: > 2.7 µM
TNF-α; Donor 5, read-out: IC50 Inhibition of TNF-α
  IC50: 5.3 µM
TNF-α; Donor 6, read-out: IC50 Inhibition of TNF-α
  IC50: 3 µM
Recombinant abl kinase
  concentrations at which phosphorylation of the peptide by abl kinase was inhibited: 0.001 to 5.2 µM
  IC50: 0.006 µM
Recombinant abl kinase; 0.001 μM
  inhibition at 0.001 µM: 39%
Recombinant abl kinase; 0.01 μM
  inhibition at 0.01 µM: 56.2%
Recombinant abl kinase; 0.081 μM
  inhibition at 0.081 µM: 86.3%
Recombinant abl kinase; 0.65 μM
  inhibition at 0.65 µM: 98.6%
Recombinant abl kinase; 5.2 μM
  inhibition at 5.2 µM: 100%
[2]; 0.056 µM, read-out: % Inhibition of anti-CD-28 and Anti-CD3 induced IL-2 by T cells
  inhibition at 0.056 µM: 29.8%
[2]; 0.11 µM, read-out: % Inhibition of anti-CD-28 and Anti-CD3 induced IL-2 by T cells
  inhibition at 0.11 µM: 47.3%
[2]; 0.22 µM, read-out: % Inhibition of anti-CD-28 and Anti-CD3 induced IL-2 by T cells
  inhibition at 0.22 µM: 106%
[2]; 0.44 µM, read-out: % Inhibition of anti-CD-28 and Anti-CD3 induced IL-2 by T cells
  inhibition at 0.44 µM: 88.3%
[2]; 0.89 µM, read-out: % Inhibition of anti-CD-28 and Anti-CD3 induced IL-2 by T cells
  inhibition at 0.89 µM: 98.6%
[2]; 1.8 µM, read-out: % Inhibition of anti-CD-28 and Anti-CD3 induced IL-2 by T cells
  inhibition at 1.8 µM: 100%
[2]; 3.6 µM, read-out: % Inhibition of anti-CD-28 and Anti-CD3 induced IL-2 by T cells
  inhibition at 3.6 µM: 100%
[2]; 7.1 µM, read-out: % Inhibition of anti-CD-28 and Anti-CD3 induced IL-2 by T cells
  inhibition at 7.1 µM: 100%
[2]; 18 hours, read-out: IC50 for inhibition of anti-CD3 and anti-CD28 induced IL2 production by T cells
  IC50: 0.12 µM
IL-2; Donor 1, read-out: IC50 Inhibition of IL-2
  IC50: 0.22 µM
IL-2; Donor 2, read-out: IC50 Inhibition of IL-2
  IC50: 1.2 µM
IL-2; Donor 3, read-out: IC50 Inhibition of IL-2
  IC50: 0.43 µM
IL-2; Donor 4, read-out: IC50 Inhibition of IL-2
  IC50: > 2.7 µM
IL-2; Donor 5, read-out: IC50 Inhibition of IL-2
  IC50: < 0.4 µM
IL-2; Donor 6, read-out: IC50 Inhibition of IL-2
  IC50: < 0.4 µM
[3]; 0.09 µM, read-out: % Inhibition of LPS induced TNF-a by monocytes
  inhibition at 0.09 µM: 19%
[3]; 0.18 µM, read-out: % Inhibition of LPS induced TNF-a by monocytes
  inhibition at 0.18 µM: 32.1%
[3]; 0.36 µM, read-out: % Inhibition of LPS induced TNF-a by monocytes
  inhibition at 0.36 µM: 48.1%
[3]; 0.7 µM, read-out: % Inhibition of LPS induced TNF-a by monocytes
  inhibition at 0.7 µM: 57.6%
[3]; 1.4 µM, read-out: % Inhibition of LPS induced TNF-a by monocytes
  inhibition at 1.4 µM: 73.2%
[3]; 2.9 µM, read-out: % Inhibition of LPS induced TNF-a by monocytes
  inhibition at 2.9 µM: 80%
[3]; 5.7 µM, read-out: % Inhibition of LPS induced TNF-a by monocytes
  inhibition at 5.7 µM: 89%
[3]; 18 hours, read-out: IC50 for inhibition of LPS induced TNF-α secretion by monocytes
  IC50: 0.42 µM
[1]; [4]
  IC50: 0.34 µM
[1]; Homo sapiens, Jurkat E6.1, 0.056 μM, read-out: % Inhibition of anti-CD28 induced IL-2 by PMA pre-treated Jurkat E6-1
  inhibition at 0.056 µM: 29%
[1]; Homo sapiens, Jurkat E6.1, 0.11 μM, read-out: % Inhibition of anti-CD28 induced IL-2 by PMA pre-treated Jurkat E6-1
  inhibition at 0.11 µM: 30.5%
[1]; Homo sapiens, Jurkat E6.1, 0.22 μM, read-out: % Inhibition of anti-CD28 induced IL-2 by PMA pre-treated Jurkat E6-1
  inhibition at 0.22 µM: 36%
[1]; Homo sapiens, Jurkat E6.1, 0.44 μM, read-out: % Inhibition of anti-CD28 induced IL-2 by PMA pre-treated Jurkat E6-1
  inhibition at 0.44 µM: 57.8%
[1]; Homo sapiens, Jurkat E6.1, 0.89 μM, read-out: % Inhibition of anti-CD28 induced IL-2 by PMA pre-treated Jurkat E6-1
  inhibition at 0.89 µM: 85.4%
[1]; Homo sapiens, Jurkat E6.1, 1.8 μM, read-out: % Inhibition of anti-CD28 induced IL-2 by PMA pre-treated Jurkat E6-1
  inhibition at 1.8 µM: 92.2%
[1]; Homo sapiens, Jurkat E6.1, 3.6 μM, read-out: % Inhibition of anti-CD28 induced IL-2 by PMA pre-treated Jurkat E6-1
  inhibition at 3.6 µM: 89.1%
[1]; Homo sapiens, Jurkat E6.1, 7.1 μM, read-out: % Inhibition of anti-CD28 induced IL-2 by PMA pre-treated Jurkat E6-1
  inhibition at 7.1 µM: 91.5%
T cells
  toxicity to T cells: not toxic

## COC1C(O)c2c(O)cccc2C2=C3CCC(O)c4c(O)ccc(c43)C21 (single isomer, unassigned) [Compound 2a]
Recombinant abl kinase
  IC50: > 1 µM
[1]; [4]
  IC50: 2.96 µM

## COC1C(O)c2c(O)cccc2C2=C3CCC(O)c4c(O)ccc(c43)C21 (single isomer, unassigned) [Compound 2b]
Recombinant abl kinase
  IC50: > 1 µM

## COC1C(O)c2c(O)cccc2C23OC24CCC(=O)c2c(O)ccc(c24)C13 (stereo not drawn) [Compound 3]
Recombinant abl kinase
  IC50: 0.7 µM
[1]; [4]
  IC50: > 9.56 µM

## COc1cccc2c1C(O)C(OC)C1C2=C2CCC(=O)c3c(O)ccc1c32 (stereo not drawn) [Compound 4]
Recombinant abl kinase
  IC50: > 1 µM
[1]; [4]
  IC50: 6.64 µM

## COC1C(O)c2c(O)cccc2C2=C3CCC(NC4CC4)c4c(O)ccc(c43)C21 (stereo not drawn) [Compound 5, 3-Cyclopropylamino-7-methoxy-1,2,3,6b, 7,8-hexahydrobenzo[d]fluoranthen-4,8,9-triol]
Recombinant abl kinase
  IC50: > 1 µM
[1]; [4]
  IC50: 1.28 µM

## COC1C(O)c2c(O)cccc2C2=C3CCC(=NO)c4c(O)ccc(c43)C21 (stereo not drawn) [Compound 7, 4,8,9-Trihydroxy-7-methoxy-1,6b,7,8-tetrahydro-2H-benzo[j]fluoranthen-3-one oxime]
Recombinant abl kinase
  IC50: > 1 µM
[1]; [4]
  IC50: > 1.49 µM

## COC1C(O)c2c(O)cccc2C2=C3CCC(=O)c4c(O)c(Cl)cc(c43)C21 (stereo not drawn) [Compound 8, 5-Chloro-4,8,9-trihydroxy-7-methoxy-1,6b,7,8-tetrahydro-2H-benzo[j]fluoranthen-3-one]
Recombinant abl kinase
  IC50: > 1 µM

## CCCOC1c2c(O)cccc2C2=C3CCC(=O)c4c(O)ccc(c43)C2C1OC (stereo not drawn) [Compound 9, 4,9-Dihydro-7-methoxy-8-propoxy-1,6b,7,8-tetrahydro-2H-benzo[j]fluoranthen-3-one]
Recombinant abl kinase
  IC50: 0.132 µM
[1]; [4]
  IC50: 10.9 µM

## CCOC1c2c(O)cccc2C2=C3CCC(=O)c4c(O)ccc(c43)C2C1OC (stereo not drawn) [Compound 10, 8-Ethoxy-4,9-dihydroxy-7-methoxy-1,6b,7,8-tetrahydro-2H-benzo[j]fluoranthen-3-one]
Recombinant abl kinase
  IC50: 0.274 µM
[1]; [4]
  IC50: 2.35 µM

## CCO[C@@H]1c2c(O)cccc2C2=C3CCC(=O)c4c(O)ccc(c43)[C@@H]2[C@H]1OC [Compound 10a]
Recombinant abl kinase
  IC50: > 5 µM
[1]; [4]
  IC50: > 7.94 µM

## COC1c2c(O)cccc2C2=C3CCC(=O)c4c(O)ccc(c43)C2C1OC (stereo not drawn) [Compound 11, 4,9-Dihydroxy-7,8-dimethoxy-1,6b,7,8-tetrahydro-2H-benzo[j]fluroanthen-3-one]
Recombinant abl kinase
  IC50: 0.045 µM
[1]; PMA pre-treated
  IC50: 1.06 µM

## COC1C(=O)c2c(O)cccc2C2=C3CCC(=O)c4c(O)ccc(c43)C21 (stereo not drawn) [Compound (II)]
Recombinant abl kinase
  IC50: > 5 µM
[1]; [4]
  IC50: > 5 µM

## COC1c2c(O)cccc2C2=C3CCC(=O)c4c(O)ccc(c43)C2C1OC (stereo not drawn) [Compound (III)]
[1]; PMA pre-treated
  IC50: 4.3 µM

## CO[C@H]1[C@@H](O)c2c(O)cccc2C2=C3CCC(=O)c4c(O)ccc(c43)[C@H]21 [Compound (Ib)]
[1]; [4]
  IC50: 2.5 µM
